Test results published in patent US20230346889A9, “TREATMENT OF ACUTE HEART FAILURE” (AnaCardio R&D AB, priority 2019, published 2023).

Test system: phosphorylation of serine 23-24 on troponin I
Test: Cardiomyocyte protein immunoblotting of troponin I phosphorylation
Format: cell-based, mouse
Settings: for troponin I serine 23-24 phosphorylation signal: 15 min treatment, vs placebo
Description: Isolated cardiomyocytes were treated for 15 min in different conditions (Placebo, Ghrelin, D-Lys 3 GHS-R1a, D-Lys 3 GHS-R1a+Ghrelin). Thereafter cardiomyocytes were pelleted and homogenated. Protein lysates were separated by electrophoresis and transferred onto membranes. Membranes were incubated with primary antibody: rabbit phospho-troponin I (cardiac) ([…]) antibody (Cell Signaling #4004), mouse troponin 1 (Millipore MAB1691A). Then infrared-labelled secondary antibodies (IRDye 680 and IRDye 800, 1:5000, Licor) were used. Immunoreactive bands were analyzed using the Odyssey Infrared Imaging System. Band densities were quantified with Image J, normalized to GAPDH and final data expressed as fold increase compared to Placebo group.

SMILES: CCCCCCCC(=O)OC[C@H](NC(=O)[C@H](CO)NC(=O)CN)C(=O)N[C@@H](Cc1ccccc1)C(=O)N[C@@H](CC(C)C)C(=O)N[C@@H](CO)C(=O)N1CCC[C@H]1C(=O)N[C@@H](CCC(=O)O)C(=O)N[C@@H](Cc1cnc[nH]1)C(=O)N[C@@H](CCC(N)=O)C(=O)N[C@@H](CCCNC(=N)N)C(=O)N[C@H](C(=O)N[C@@H](CCC(N)=O)C(=O)N[C@@H](CCC(N)=O)C(=O)N[C@@H](CCCNC(=N)N)C(=O)N[C@@H](CCCCN)C(=O)N[C@@H](CCC(=O)O)C(=O)N[C@@H](CO)C(=O)N[C@@H](CCCCN)C(=O)N[C@@H](CCCCN)C(=O)N1CCC[C@H]1C(=O)N1CCC[C@H]1C(=O)N[C@@H](C)C(=O)N[C@@H](CCCCN)C(=O)N[C@@H](CC(C)C)C(=O)N[C@@H](CCC(N)=O)C(=O)N1CCC[C@H]1C(=O)N[C@@H](CCCNC(=N)N)C(=O)O)C(C)C [Ghrelin]
- total troponin I expression: without change
- troponin I serine 23-24 phosphorylation signal: less cTnI phosphorylation (hypophosphorylation)
- troponin I serine 23-24 phosphorylation signal (listed as ghrelin): lower compared to placebo
